These results are taken from ChEMBL document CHEMBL1154526, “Novel non-active site inhibitor of Cryptosporidium hominis TS-DHFR identified by a virtual screen” (Bioorg Med Chem Lett, 2009).

A short description of experiment [1]: Inhibition of Cryptosporidium hominis TS-DHFR by spectroscopic assay.
Experiment [2] has as its target T1, Dihydrofolate reductase (Homo sapiens, UniProt P00374).
T1 sequence (P00374 whole entry): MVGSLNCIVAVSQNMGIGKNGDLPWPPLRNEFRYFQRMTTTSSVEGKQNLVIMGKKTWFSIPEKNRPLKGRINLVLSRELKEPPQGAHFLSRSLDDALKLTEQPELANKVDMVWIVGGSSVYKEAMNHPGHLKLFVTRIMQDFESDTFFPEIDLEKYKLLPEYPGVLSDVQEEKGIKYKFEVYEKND
Kind of experiment: Inhibition of human DHFR.

In experiment [3] the target is Thymidylate synthase (Homo sapiens, UniProt P04818). Kind of experiment: Inhibition of human thymidylate synthase.
The nature of experiment [4]: Binding affinity to Cryptosporidium hominis TS-DHFR by burst amplitude assay.
Experiment [5] has as its target T2, Bifunctional dihydrofolate reductase-thymidylate synthase (Toxoplasma gondii, UniProt Q07422).
T2 sequence (Q07422 whole entry): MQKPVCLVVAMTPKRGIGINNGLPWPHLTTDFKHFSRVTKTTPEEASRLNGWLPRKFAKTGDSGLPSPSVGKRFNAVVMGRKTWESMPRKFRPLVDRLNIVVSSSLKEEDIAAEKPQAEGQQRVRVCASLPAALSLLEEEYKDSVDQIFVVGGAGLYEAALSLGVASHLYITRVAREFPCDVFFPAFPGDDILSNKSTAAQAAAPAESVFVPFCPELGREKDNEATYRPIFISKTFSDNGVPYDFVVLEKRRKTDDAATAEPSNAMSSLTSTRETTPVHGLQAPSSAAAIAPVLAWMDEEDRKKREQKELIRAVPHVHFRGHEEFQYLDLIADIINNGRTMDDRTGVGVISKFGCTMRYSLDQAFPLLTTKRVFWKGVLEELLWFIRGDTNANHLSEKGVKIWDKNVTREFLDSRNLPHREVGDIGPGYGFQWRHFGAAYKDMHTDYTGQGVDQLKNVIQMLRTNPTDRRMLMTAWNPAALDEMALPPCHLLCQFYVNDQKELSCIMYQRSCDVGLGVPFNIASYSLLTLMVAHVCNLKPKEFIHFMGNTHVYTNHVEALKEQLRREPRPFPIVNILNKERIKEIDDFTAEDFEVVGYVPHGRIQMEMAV
Kind of experiment: Inhibition of Toxoplasma gondii TS-DHFR.

The subject of experiment [6] is T3, Dihydrofolate reductase (Cryptosporidium hominis), Q27552 [R190G].
T3 sequence (whole entry): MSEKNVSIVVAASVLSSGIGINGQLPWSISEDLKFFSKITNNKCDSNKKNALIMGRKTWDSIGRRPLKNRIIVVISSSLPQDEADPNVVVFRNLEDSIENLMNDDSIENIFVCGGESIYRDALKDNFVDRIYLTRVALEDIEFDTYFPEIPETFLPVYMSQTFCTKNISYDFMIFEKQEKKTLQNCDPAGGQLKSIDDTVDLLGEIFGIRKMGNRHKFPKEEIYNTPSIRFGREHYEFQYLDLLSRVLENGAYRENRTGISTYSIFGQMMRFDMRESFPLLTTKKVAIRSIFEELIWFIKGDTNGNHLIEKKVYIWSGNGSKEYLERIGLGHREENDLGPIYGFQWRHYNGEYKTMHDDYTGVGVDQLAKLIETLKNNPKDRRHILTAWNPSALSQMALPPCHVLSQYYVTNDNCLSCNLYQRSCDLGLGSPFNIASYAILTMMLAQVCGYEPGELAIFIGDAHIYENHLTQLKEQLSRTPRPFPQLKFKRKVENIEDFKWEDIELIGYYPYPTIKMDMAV
Put plainly: Inhibition of Cryptosporidium hominis DHFR R190G mutant. On the set-up: scale not given: the % may be the effect or the level left.

The test system of experiment [7] is Cryptosporidium hominis. The settings on record: 200 uM.
Description: Activity at Cryptosporidium hominis DHFR at 200 uM using NADPH substrate by steady state competition assay
Experiment [8] relates to T4, Dihydrofolate reductase (Cryptosporidium hominis), Q27552 [D201A].
T4 sequence (whole entry): T3 sequence (whole entry) with G190R, D201A
Put plainly: Inhibition of Cryptosporidium hominis DHFR D201A mutant. On the set-up: scale not given: the % may be the effect or the level left.

Experiment [9] is described as follows: Inhibition of Cryptosporidium hominis 80 to 250 nM TS-DHFR by spectroscopic assay.
The test system of experiment [10] is Cryptosporidium hominis. To be noted: 200 uM. This is another data set of the same source.
Description: Activity at Cryptosporidium hominis DHFR at 200 uM using dihydrofolate substrate by steady state competition assay

Substitutions are numbered along the chain they refer to.

Chain of Thymidylate synthase (P04818 whole entry): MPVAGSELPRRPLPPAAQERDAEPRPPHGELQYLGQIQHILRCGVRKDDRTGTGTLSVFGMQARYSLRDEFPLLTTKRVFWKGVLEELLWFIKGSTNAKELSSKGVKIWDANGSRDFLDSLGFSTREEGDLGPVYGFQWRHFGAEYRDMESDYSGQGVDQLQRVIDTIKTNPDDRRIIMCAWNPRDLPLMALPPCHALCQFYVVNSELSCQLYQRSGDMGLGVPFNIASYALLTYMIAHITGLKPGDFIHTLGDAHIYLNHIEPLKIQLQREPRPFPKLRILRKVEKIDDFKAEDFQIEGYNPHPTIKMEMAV

As usually defined, the IC50 is the concentration that inhibits the measured activity by half. With `CC(=O)N[C@@H]1[C@@H](O)[C@H](O[C@@H]2O[C@H](CO)[C@@H](O)[C@H](O)[C@H]2NC(C)=O)[C@@H](CO)O[C@H]1O` [CHITODEXTRIN], in experiment [1], the IC50 was over 500 µM.
For `C[C@H]1O[C@@H](O[C@H]2[C@@H](O)C[C@H](O[C@H]3[C@@H](O)C[C@H](O[C@H]4CC[C@@]5(C)[C@H](CC[C@@H]6[C@@H]5C[C@@H](O)[C@]5(C)[C@@H](C7=CC(=O)OC7)CC[C@]65O)C4)O[C@@H]3C)O[C@@H]2C)C[C@H](O)[C@@H]1O` [DIGOXIN], in [1], the IC50 was over 500 µM.
`CC(=O)N1CCN(c2ccc(OCC3COC(Cn4ccnc4)(c4ccc(Cl)cc4Cl)O3)cc2)CC1` (configuration not stated) [KETOCONAZOLE] gave an IC50 in experiment [1] of over 500 µM.
As a reminder, the Kd is the free concentration of one partner at which half of the binding sites on the other are occupied at equilibrium, for simple one-to-one binding. As a reminder, the Km is the substrate concentration at which the rate is half of its maximum. For orientation: Vmax means the top rate of the reaction or transport when substrate is in excess. On to `Cc1cc2nc3c(=O)[nH]c(=O)nc-3n(C[C@H](O)[C@H](O)[C@H](O)COP(=O)(O)O)c2cc1C` [RIBOFLAVIN 5'-PHOSPHATE], for which the IC50 is 325 µM in experiment [2]; over 500 µM in [3]; over 500 µM in experiment [5]; 55 µM in experiment [1]; 55 µM in experiment [9]. The affinity in [4], expressed as Kd, was 48 µM. Moreover, the figures for the Activity in experiment [6] and in experiment [8] were 20% and 10%, respectively. The Km in [7] was 3 µM; in experiment [10], 7.2 µM. The Vmax in experiment [7] came out at 1.77 µmol/min; in experiment [10], 1.8 µmol/min.
`COc1cccc2c1C(=O)C1=C(C2=O)C(O)C2=C(C1O)[C@@H](C[C@@H]1C[C@H](N)[C@@H](O)[C@H](C)O1)C[C@@](O)(/C(C)=N/NC(=O)c1ccccc1)C2` (some centres not stated) [RUBIDAZONE]: in [1], the half-inhibitory concentration (IC50) was over 500 µM.
For `COC1=C(N)C(=O)c2nc(-c3nc(C(=O)O)c(C)c(-c4ccc(OC)c(OC)c4O)c3N)ccc2C1=O` [STREPTONIGRIN], in experiment [1], the IC50 was 80 µM.
